Reference: patent US20100298141A1, “SUBSTITUTED PYRIDINE N-OXIDE HERBICIDES” (E. I. DU PONT DE NEMOURS AND COMPANY, priority 2007, published 2010)

Experiments:
[1] = system: barnyardgrass; assay: Test A pre-/postemergence greenhouse test; format: in vivo, Echinochloa crus-galli; conditions: for Plant response rating, Barnyardgrass: 0 to 100 scale where 0 is no effect and 100 is complete control; for Barnyardgrass plant response rating: 0 to 100 scale
Summary of the method: (§1)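 Greenhouse herbicide screen, pre- and postemergence in parallel. Soil: loam plus sand. Formulation: non-phytotoxic solvent mix with surfactant. Postemergence stage: one to two leaves, 2–10 cm height. Evaluation: visual injury, compared with untreated controls, about 10 days after treatment.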

[2] = system: redroot pigweed; assay: Test A pre-/postemergence greenhouse test; format: in vivo, Amaranthus retroflexus; conditions: for Plant response rating, Pigweed: 0 to 100 scale where 0 is no effect and 100 is complete control; for Pigweed plant response rating: 0 to 100 scale
Summary of the method: as §1

[3] = system: morningglory; assay: Test A pre-/postemergence greenhouse test; format: in vivo, Ipomoea spp.; conditions: for Plant response rating, Morningglory: 0 to 100 scale where 0 is no effect and 100 is complete control; for Morningglory plant response rating: 0 to 100 scale
Summary of the method: as §1

[4] = system: wheat; assay: Test A pre-/postemergence greenhouse test; format: in vivo, Triticum aestivum; conditions: for Plant response rating, Wheat: 0 to 100 scale where 0 is no effect and 100 is complete control; for Wheat plant response rating: 0 to 100 scale
Summary of the method: as §1

[5] = system: barnyardgrass; assay: Test C flooded paddy test; format: in vivo, Echinochloa crus-galli; conditions: Flood
Summary of the method: (§2)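 Visual injury ratings against untreated controls, taken 13 to 15 days after compound was added to paddy water standing 3 cm above the soil.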

[6] = system: umbrella sedge; assay: Test C flooded paddy test; format: in vivo, Cyperus difformis; conditions: Flood
Summary of the method: as §2

[7] = system: duck salad; assay: Test C flooded paddy test; format: in vivo, Heteranthera limosa; conditions: Flood
Summary of the method: as §2

[8] = system: rice; assay: Test C flooded paddy test; format: in vivo, Oryza sativa; conditions: Flood
Summary of the method: as §2

[9] = system: corn; assay: Test A pre-/postemergence greenhouse test; format: in vivo, Zea mays; conditions: for Plant response rating, Corn: 0 to 100 scale where 0 is no effect and 100 is complete control; for Corn plant response rating: 0 to 100 scale
Summary of the method: as §1

[10] = system: crabgrass; assay: Test A pre-/postemergence greenhouse test; format: in vivo, Digitaria sanguinalis; conditions: for Plant response rating, Crabgrass, Large: 0 to 100 scale where 0 is no effect and 100 is complete control; for Crabgrass, Large plant response rating: 0 to 100 scale
Summary of the method: as §1

[11] = system: velvetleaf; assay: Test A pre-/postemergence greenhouse test; format: in vivo, Abutilon theophrasti; conditions: for Plant response rating, Velvetleaf: 0 to 100 scale where 0 is no effect and 100 is complete control; for Velvetleaf plant response rating: 0 to 100 scale
Summary of the method: as §1

[12] = system: giant foxtail; assay: Test A pre-/postemergence greenhouse test; format: in vivo, Setaria faberi; conditions: for Plant response rating, Foxtail, Giant: 0 to 100 scale where 0 is no effect and 100 is complete control; for Foxtail, Giant plant response rating: 0 to 100 scale
Summary of the method: as §1

[13] = Postemergence, 500 g ai/ha, 0 is no effect, 100 is complete control
[14] = Preemergence, 125 g ai/ha, 0 no effect, 100 complete control
[15] = Preemergence, 500 g ai/ha, 0 no effect, 100 complete control
[16] = 62 g ai/ha, scale 0 to 100 (0 no effect, 100 complete control)
[17] = 250 g ai/ha, scale 0 to 100, 0 no effect, 100 complete control, 13 to 15 days

With `Cc1cc[n+]([O-])c(S(=O)(=O)Cc2c(C(F)(F)F)nn(C)c2OCC(F)(F)C(F)(F)F)c1` [Compound 98] the “Plant response rating, Barnyardgrass” value ([1]; Postemergence, 125 g ai/ha) was 0, the “Barnyardgrass plant response rating” value [1, 13] was 70 and the “Barnyardgrass plant response rating” value [1, 14] was 60. For the same compound, the “Plant response rating, Barnyardgrass” value ([1]; Preemergence, 500 g ai/ha) was 100, the “Plant response rating, Pigweed” value ([2]; Postemergence, 125 g ai/ha) was 0 and the “Pigweed plant response rating” value [2, 13] was 20. The “Pigweed plant response rating” value [2, 14] was 20, the “Plant response rating, Pigweed” value ([2]; Preemergence, 500 g ai/ha) was 60 and the “Plant response rating, Morningglory” value ([3]; Postemergence, 125 g ai/ha) was 10. For the same compound, the “Morningglory plant response rating” value [3, 13] was 80, the “Morningglory plant response rating” value [3, 14] was 0 and the “Plant response rating, Morningglory” value ([3]; Preemergence, 500 g ai/ha) was 50. For the same compound, the “Plant response rating, Wheat” value ([4]; Postemergence, 125 g ai/ha) was 0, the “Wheat plant response rating” value [4, 13] was 0 and the “Wheat plant response rating” value [4, 14] was 0. The “Wheat plant response rating” value [4, 15] was 20, the “Plant response rating, Barnyardgrass” value [5, 16] was 0 and the “Plant response rating, Barnyardgrass” value [5, 17] was 0. The “Plant response rating, Sedge, Umbrella” value [6, 16] was 0, the “Plant response rating, Sedge, Umbrella” value [6, 17] was 0 and the “Plant response rating, Ducksalad” value [7, 16] was 0. For the same compound, the “Plant response rating, Ducksalad” value [7, 17] was 0, the “Plant response rating, Rice” value [8, 16] was 0 and the “Plant response rating, Rice” value [8, 17] was 0. The “Plant response rating, Corn” value ([9]; Postemergence, 125 g ai/ha) was 30, the “Corn plant response rating” value [9, 13] was 30 and the “Corn plant response rating” value [9, 14] was 0. The “Plant response rating, Corn” value ([9]; Preemergence, 500 g ai/ha) was 0, the “Plant response rating, Crabgrass, Large” value ([10]; Postemergence, 125 g ai/ha) was 10 and the “Crabgrass, Large plant response rating” value [10, 13] was 70. The “Crabgrass, Large plant response rating” value [10, 14] was 30, the “Plant response rating, Crabgrass, Large” value ([10]; Preemergence, 500 g ai/ha) was 90 and the “Plant response rating, Velvetleaf” value ([11]; Postemergence, 125 g ai/ha) was 0. For the same compound, the “Velvetleaf plant response rating” value [11, 13] was 40, the “Velvetleaf plant response rating” value [11, 14] was 0 and the “Velvetleaf plant response rating” value [11, 15] was 50. For the same compound, the “Plant response rating, Foxtail, Giant” value ([12]; Postemergence, 125 g ai/ha) was 20, the “Foxtail, Giant plant response rating” value [12, 13] was 80 and the “Foxtail, Giant plant response rating” value [12, 14] was 50. The “Plant response rating, Foxtail, Giant” value ([12]; Preemergence, 500 g ai/ha) was 100.
With `Cn1nc(OC(F)F)c(C[S+]([O-])c2cccc[n+]2[O-])c1C(F)(F)F` (centres unmarked) [Compound 74] the “Plant response rating, Barnyardgrass” value ([1]; Postemergence, 125 g ai/ha) was 50, the “Barnyardgrass plant response rating” value [1, 13] was 80 and the “Barnyardgrass plant response rating” value [1, 14] was 70. The “Plant response rating, Barnyardgrass” value ([1]; Preemergence, 500 g ai/ha) was 90, the “Plant response rating, Pigweed” value ([2]; Postemergence, 125 g ai/ha) was 50 and the “Pigweed plant response rating” value [2, 13] was 60. The “Pigweed plant response rating” value [2, 14] was 60, the “Plant response rating, Pigweed” value ([2]; Preemergence, 500 g ai/ha) was 70 and the “Plant response rating, Morningglory” value ([3]; Postemergence, 125 g ai/ha) was 40. The “Morningglory plant response rating” value [3, 13] was 80, the “Morningglory plant response rating” value [3, 14] was 20 and the “Plant response rating, Morningglory” value ([3]; Preemergence, 500 g ai/ha) was 90. The “Plant response rating, Wheat” value ([4]; Postemergence, 125 g ai/ha) was 20, the “Wheat plant response rating” value [4, 13] was 60 and the “Wheat plant response rating” value [4, 14] was 0. The “Plant response rating, Wheat” value ([4]; Preemergence, 500 g ai/ha) was 90, the “Plant response rating, Barnyardgrass” value [5, 16] was 15 and the “Plant response rating, Barnyardgrass” value [5, 17] was 30. The “Plant response rating, Sedge, Umbrella” value [6, 16] was 0, the “Plant response rating, Sedge, Umbrella” value [6, 17] was 50 and the “Plant response rating, Ducksalad” value [7, 16] was 70. For the same compound, the “Plant response rating, Ducksalad” value [7, 17] was 65, the “Plant response rating, Rice” value [8, 16] was 10 and the “Plant response rating, Rice” value [8, 17] was 10. The “Plant response rating, Corn” value ([9]; Postemergence, 125 g ai/ha) was 0, the “Corn plant response rating” value [9, 13] was 60 and the “Corn plant response rating” value [9, 14] was 0. For the same compound, the “Plant response rating, Corn” value ([9]; Preemergence, 500 g ai/ha) was 80, the “Plant response rating, Crabgrass, Large” value ([10]; Postemergence, 125 g ai/ha) was 40 and the “Crabgrass, Large plant response rating” value [10, 13] was 80. The “Crabgrass, Large plant response rating” value [10, 14] was 60, the “Plant response rating, Crabgrass, Large” value ([10]; Preemergence, 500 g ai/ha) was 90 and the “Plant response rating, Velvetleaf” value ([11]; Postemergence, 125 g ai/ha) was 20. For the same compound, the “Velvetleaf plant response rating” value [11, 13] was 70, the “Velvetleaf plant response rating” value [11, 14] was 0 and the “Plant response rating, Velvetleaf” value ([11]; Preemergence, 500 g ai/ha) was 60. For the same compound, the “Plant response rating, Foxtail, Giant” value ([12]; Postemergence, 125 g ai/ha) was 60, the “Foxtail, Giant plant response rating” value [12, 13] was 90 and the “Foxtail, Giant plant response rating” value [12, 14] was 80. The “Plant response rating, Foxtail, Giant” value ([12]; Preemergence, 500 g ai/ha) was 90.
